Source: a melting point compilation (Tetko et al.)
Non-standard residues stand in square brackets, D forms with d. Residues, ends and D or L forms follow the SMILES beside them. ξ: configuration not given here. *: point of attachment. X1 = COC1=CC(=O)N(C(=O)C(O*)C(C)C)C1Cc1ccccc1; ξNMe2Val = CC(C)C(C(=O)*)N(C)C; NMeV = CN[CH](C(=O)O)C(C)C

Compound | melting point
COc1cc2c(cc1-c1cc3c4cc(-c5ccccc5)ccc4n(CCC(C)CCCC(C)C)c3cc1OC)c1cc(-c3ccccc3)ccc1n2CCC(C)CCCC(C)C (centres undefined) | 155 °C
Cc1ccc(Cc2cc(OCCCCCCCCCCCCP(=O)(O)O)ccc2S(=O)(=O)c2ccc(OCCCCCCCCCCCCP(=O)(O)O)cc2Cc2ccc(C)cc2)cc1 | 148 to 150 °C
O=C(Nc1ccc(N2CCNCC2)cc1)c1ccccc1-c1ccccc1 | 176 °C
Cc1ccc(O)c(Br)c1 | 16 °C
CCCCCCCCCCOc1cc2c3c(c4cc(OCCCCCCCCCC)c(OCCCCCCCCCC)cc4c2cc1OCCCCCCCCCC)C(=O)C=CC3=O | 86 to 87 °C
CCCCCCCCCCCCCCCCCCOC(=O)CCSCc1c(C)c(O)c(C)c(CSCCC(=O)OCCCCCCCCCCCCCCCCCC)c1C | 66 to 70 °C
CC1(C)CC(Oc2nc(N(C3CC(C)(C)N(O)C(C)(C)C3)C3CC(C)(C)N(O)C(C)(C)C3)nc(N(C3CC(C)(C)N(O)C(C)(C)C3)C3CC(C)(C)N(O)C(C)(C)C3)n2)CC(C)(C)N1O | 233 to 236 °C
N=S(=O)(c1ccccc1)c1cccnc1 (centres undefined) | 109 °C
CCCCCCCCCCCCCCCC(=O)C(O)[C@](O)(C(=O)CCCCCCCCCCCCCCC)[C@@H](O)[C@H](O)[C@@](O)(C(=O)CCCCCCCCCCCCCCC)C(O)C(=O)CCCCCCCCCCCCCCC (some centres undefined) | 72 to 74 °C
[C-]#[N+]C1Cc2ccccc2C(=C)c2ccccc21 (centres undefined) | 96 to 98 °C
CC(=O)N1C(C)(C)CC(OC(=O)C(Cc2cc(C(C)(C)C)c(O)c(C(C)(C)C)c2)(Cc2cc(C(C)(C)C)c(O)c(C(C)(C)C)c2)C(=O)OC2CC(C)(C)N(C(C)=O)C(C)(C)C2)CC1(C)C | 202 °C
CC(=O)OCC(O)CO (centres undefined) | 17 °C
FC(F)(F)c1ccc(-c2cc(-c3ccc(C(F)(F)F)cc3C(F)(F)F)c3ccc4c(-c5ccc(C(F)(F)F)cc5C(F)(F)F)cc(-c5ccc(C(F)(F)F)cc5C(F)(F)F)c5ccc2c3c54)c(C(F)(F)F)c1 | 290 °C
CCCCCCCCCCCCCCCCCCOc1nc(OCCCCCCCCCCCCCCCCCC)nc(Oc2cc(-c3ccccc3)c(O)c(-c3ccccc3)c2)n1 | 33 °C
CCCCCCCCCCCCCCCCOC(=O)c1ccc(C(=O)N(CCCCCCCCCCCCCCCC)OCCCCCCCCCCCCCCCC)nc1 | 93 to 95 °C
FC(F)(F)C(F)(F)C(F)(F)C(F)(F)C(F)(F)C(F)(F)C(F)(F)C(F)(F)CCC1(CCC(F)(F)C(F)(F)C(F)(F)C(F)(F)C(F)(F)C(F)(F)C(F)(F)C(F)(F)F)c2cc(Br)ccc2-c2ccc(Br)cc21 | 130 to 131 °C
Cc1c(Cc2ccccc2)sc2nc(N)[nH]c(=O)c12 | 292 to 294 °C
CS(=N)(=O)c1ccc(Nc2ncc(Br)c(Cl)n2)cc1 (racemic) | 170 to 173 °C
CC(C)C(OC(C(I)=C(I)I)C(C)C)C(I)=C(I)I (centres undefined) | 43.5 to 44 °C
Cc1ccc(Cl)cc1C(N)=NO | 111 to 113 °C

Compound | melting point
CCCCCCCCCCCCCCOc1ccc(N(CC(=O)OCc2ccccc2)CC(=O)OCc2ccccc2)cc1OCCCCCCCCCCCCCC | 52 °C
COC1=CC(=O)N(C(=O)C(OC(=O)C2CCCN2C(=O)C2CCCN2C(=O)C(C(C)C)N(C)C(=O)C(NC(=O)C(C(C)C)N(C)C)C(C)C)C(C)C)C1Cc1ccccc1 (centres undefined) (ξNMe2Val-V[NMeV]PP-X1; configuration not given here) | 143 to 148 °C
O=C(Cc1cc(I)c(Oc2cc(I)c(OCC3CO3)c(I)c2)c(I)c1)NC1CCCCC1 (centres undefined) | 242 °C
CCCCC(CC)CN1C(=O)C(=Cc2cc3c(s2)c2sc(-c4ccc(N(c5ccccc5)c5ccccc5)cc4)cc2n3CC(CC)CCCC)C(C)=C(C#N)C1=O (centres undefined) | 137 to 140 °C
CCCCCCCCCCSc1c(SCCCCCCCCCC)c(SCCCCCCCCCC)c(SCCCCCCCCCC)c(SCCCCCCCCCC)c1SCCCCCCCCCC | 29 to 30 °C
Nc1nc2sc(Cc3ccccc3)cc2c(=O)[nH]1 | 294 to 296 °C
COC(=O)CNC(=O)[C@H](NC(=O)[C@@H](CSC(c1ccccc1)(c1ccccc1)c1ccccc1)NC(=O)[C@@H](C)NC(=O)OCC1c2ccccc2-c2ccccc21)C(C)C | 195 to 197 °C
C=C(C)C(=O)OCCCCCCCCCCCOc1ccc(-c2nc(-c3ccc(OCCCCCCCCCCCOC(=O)C(=C)C)cc3O)nc(-c3ccc(OCCCCCCCCCCCOC(=O)C(=C)C)cc3O)n2)c(O)c1 | 60.2 °C
CC1(C)CC(N(c2nc(N(C3CC(C)(C)NC(C)(C)C3)C3CC(C)(C)NC(C)(C)C3)nc(N(C3CC(C)(C)NC(C)(C)C3)C3CC(C)(C)NC(C)(C)C3)n2)C2CC(C)(C)NC(C)(C)C2)CC(C)(C)N1 | 325 to 330 °C
C=C(C)C(=O)OCCCCOC(=O)C(=C)C | -117 °C
COc1cccc(-c2cc3ncnc(Nc4ccc5[nH]ccc5c4)c3s2)c1 | 160 to 168 °C
CC(C)CCCC(C)CCC1(CCC(C)CCCC(C)C)c2cc(Br)ccc2-c2ccc(-c3nc4cc5sc(-c6ccc7c(c6)C(CCC(C)CCCC(C)C)(CCC(C)CCCC(C)C)c6cc(Br)ccc6-7)nc5cc4s3)cc21 (centres undefined) | 163 to 166 °C
O=S(c1cc(C(F)(F)F)[nH]c1-c1ccc(Cl)cc1)C(F)(F)F (centres undefined) | 198 to 200 °C
CC(=O)NC1C(OCc2ccccc2)OC(COCc2ccccc2)C(OC2OC(COCc3ccccc3)C(OCc3ccccc3)C(OCc3ccccc3)C2NC(C)=O)C1O (centres undefined) | 220 to 222 °C
CCOCc1nc2c(N)nc3cc(Br)ccc3c2n1CC1CCN(C(=O)CC(C)C)CC1 | 199 to 200 °C
CC(NC(=O)C(CC(C(=O)O)C(C)(C)C)NC(=O)C(CC(C(=O)O)C(C)(C)C)NC(=O)C(NC(=O)C(N)C(C)C)C(C)C)C(=O)NC(CC(C(=O)O)C(C)(C)C)C(=O)NC(CC(N)=O)C(=O)OC(C)(C)C (centres undefined) | 229 to 231 °C
CC(C)(C)c1cc(Cc2cc(C(C)(C)C)cc(C(C)(C)C)c2Op2oc3c(C(C)(C)C)cc(C(C)(C)C)cc3c3cc(C(C)(C)C)cc(C(C)(C)C)c3o2)c(O)c(C(C)(C)C)c1 | 195 to 205 °C
C=CCOC1C(NC(C)=O)C(OCc2ccccc2)OC(COCc2ccccc2)C1OC1(N)OC(COCc2ccccc2)C(OCc2ccccc2)C(OCc2ccccc2)C1C(=O)OCC(Cl)(Cl)Cl (centres undefined) | 186 to 188 °C
CCCCCCCCCCCCCCCCCN1C(=O)C2=C(c3ccc(Br)s3)N(CCCCCCCCCCCCCCCCC)C(=O)C2=C1c1ccc(Br)s1 | 166 to 167 °C
O=S(=O)(Oc1ccc2c(OS(=O)(=O)c3ccc(OCc4ccccc4)cc3)c3cc(OS(=O)(=O)c4ccc(OCc5ccccc5)cc4)ccc3cc2c1)c1ccc(OCc2ccccc2)cc1 | 164 to 166 °C

Other lines, results leading:

melting point | Compound
144 to 146 °C | COc1cc(OC)c(/C=C/C(c2ccc(OC)c(NS(=O)(=O)C(F)(F)F)c2)S(=O)(=O)C(/C=C/c2c(OC)cc(OC)cc2OC)c2ccc(OC)c(NS(=O)(=O)C(F)(F)F)c2)c(OC)c1 (centres undefined)
162 to 164 °C | C=CCCC(=O)Nc1c(I)c(C(=O)NC(COC(C)=O)COC(C)=O)c(I)c(C(=O)NC(COC(C)=O)COC(C)=O)c1I
85 to 87 °C | CCCCCCCCCCCCCCCCCCN(CCCCCCCCCCCCCCCCCC)C(=O)c1cc(NS(=O)(=O)c2cnc(Cl)c(OC)c2)c2ccccc2c1O
192 to 195 °C | COc1ccc(Br)cc1S(=O)(=O)Nc1onc(C)c1Br
100 to 104 °C | COC(=O)c1ccc(Cn2c(C(=O)C3CCN(CCC4(c5ccc(OC)c(OC)c5)CCN(C(=O)c5cc(OC)c(OC)c(OC)c5)C4)CC3)nc3ccccc32)cc1 (centres undefined)
130 °C | CCN(CC)CCN=S(=O)(c1ccccc1)c1cccnc1 (centres undefined)
112 to 114 °C | CCCCCCCCCCCCNC(=O)c1cccc(Sc2c(Nc3cc(C(=O)NCCCCCCCCCCCC)ccc3Cl)nn(-c3c(Cl)cc(Cl)cc3Cl)c2OS(=O)(=O)c2ccccc2)c1
174 to 176 °C | COc1cc(OC)c(/C=C/C(c2ccc(OC)c(NC(=N)N)c2)S(=O)(=O)C(/C=C/c2c(OC)cc(OC)cc2OC)c2ccc(OC)c(NC(=N)N)c2)c(OC)c1 (centres undefined)
144 °C | CCC(Cc1c(I)cc(I)c(NC(=O)CCCCCNC(=O)C(COCc2ccccc2)N2CCNCCNCCNCC2)c1I)C(=O)O (centres undefined)
105 °C | CC(C)(C)OC(=O)NC(Cc1cc(I)c(Oc2cc(I)c(OCC3CO3)c(I)c2)c(I)c1)C(=O)OCC1CO1 (centres undefined)
109 to 110 °C | CCCCCCc1cc(S(C)(=O)=NS(=O)(=O)c2ccc(C)cc2)ccc1O (centres undefined)
200 to 202 °C | CCCCCCCCCCCCN(CCCCCCCCCCCC)S(=O)(=O)c1cc(NS(=O)(=O)c2ccc(NC(C)=O)c3c(O)c(N=Nc4ccccc4OC)ccc23)c(O)c2ccccc12
206 to 208 °C | C=Cc1cccc2c(=O)c(C(=O)CCC)c[nH]c12
115 to 120 °C | CCCCOC(=O)Nc1nc(CN(C)C(=O)N[C@H](C(=O)N[C@@H](Cc2ccccc2)C[C@H](O)[C@H](Cc2ccccc2)NC(=O)[C@@H](NC(=O)N(C)Cc2csc(NC(=O)OCCCC)n2)C(C)C)C(C)C)cs1
96 to 98 °C | CCCCCCCCCCCCCCCCCCN(CCCCCCCCCCCCCCCCCC)C(=O)c1cc(NS(=O)(=O)c2ccc(NN)nc2)c2ccccc2c1O
238 to 240 °C | CCOC(=O)c1c(I)c(NS(=O)(=O)c2cccc3c(N(C)C)cccc23)c(I)c(N(CC)C(C)=O)c1I
160 to 164 °C | CCOC(=O)c1c(Nc2ccccc2)n[nH]c1C
225 to 227 °C | CCCCN(Cc1c(C)cc(C(C)(C)C)c(O)c1C)S(=O)(=O)c1ccc(-c2ccc(S(=O)(=O)N(CCCC)Cc3c(C)cc(C(C)(C)C)c(O)c3C)cc2)cc1
196 to 203 °C | CC(=O)OC12COC1CC(O)C1(C)C(=O)C(O)C3=C(C)C(OC(=O)C(O)C(NC(=O)OC(C)(C)C)c4ccccc4)CC(O)(C(OC(=O)c4ccccc4)C21)C3(C)C (centres undefined)
112 to 113 °C | Cc1ccc(S(=O)(=O)NNOC(C)C)cc1
177 to 180 °C | CCCCCCCCCCCCCCCCS(=O)(=O)Nc1cccc2ccc(O)c(NS(=O)(=O)c3ccc(NC(C)=O)c4c(O)c(N=Nc5ccccc5OC)ccc34)c12
131 to 133 °C | Cc1ccc(N(C)c2cccs2)cc1O
163 to 164 °C | CC(C)(O)CCOc1c(-c2ccc(S(N)(=O)=O)cc2)cnn(-c2ccc(F)cc2)c1=O
> 250 °C | O=C(Nc1ccc(Cl)cc1)c1ccc(-c2nn[nH]n2)c(NC(=O)c2sc3ccccc3c2Cl)c1
